The assay has as its system cartilage tissue cultures exposed to IL-1 (ECM degradation, HA release). Nature of the assay: HA release from IL-1 exposed cartilage tissue cultures (ELISA). The class given is cell-based. The conditions noted are these: relative to control culture, sulfate. On the procedure:
Experiments were conducted to evaluate the anti-inflammatory effects of combinations of particular phytochemical compositions provided by the present disclosure with known substances, compositions, or drugs that are associated with an anti-inflammatory effect and/or an anti-degenerative or tissue integrity preservation effect in connective tissue. In the context of the present disclosure, the term “connective tissue” encompasses connective tissue proper (e.g., dense or fibrous connective tissue), as well as specialized connective tissue such as cartilage or bone. More specifically, experiments were conducted to evaluate the anti-inflammatory, anti-degenerative, and/or structural preservation effects of a combination of particular phytochemical compositions provided by the present disclosure with glucosamine sulfate. In addition, the experiments compared the anti-inflammatory/anti-degenerative effects of the combination of particular sesamin or sesamin-based phytochemical compositions provided by the present disclosure plus glucosamine sulfate, versus the anti-inflammatory/anti-degenerative effects of glucosamine sulfate alone.
Hyaluronic acid (HA) is an important component of the extracellular matrix (ECM), as well as a major component of synovial fluid. HA is present in articular cartilage, and contributes to cartilage resilience. It is known that IL-1 stimulates the synthesis and activity of matrix metalloproteinases and other enzymes that are associated with cartilage degradation as well as rheumatoid arthritis and osteoarthritis. A set of experimental cartilage tissue cultures were prepared using cartilage tissue samples containing HA within their ECMs. As further detailed below, the experimental cartilage tissue cultures selectively incorporated glucosamine sulfate alone; sesamin alone; or a combination of glucosamine sulfate and sesamin. Additionally, a control cartilage tissue culture remained unexposed to either of sesamin or glucosamine sulfate.
ECM degradation was induced in the experimental and control cartilage tissue cultures by exposing the cultures to IL-1. A measure or estimate of a cartilage tissue anti-degenerative effect was defined in accordance with an amount of HA that an experimental cartilage tissue culture released into the tissue culture medium relative to a reference or baseline amount of HA that was released into the tissue culture medium by the control cartilage tissue culture. More particularly, a percentage reduction in the amount of HA released into the tissue culture medium by a given experimental cartilage tissue culture relative to the amount of HA released into the tissue culture medium by the control cartilage tissue culture, indicated below as “Percentage (%) HA Reduction”, conveys or indicates the magnitude of an anti-degenerative or structural preservation effect provided by the experimental cartilage tissue culture under consideration. A corresponding measure or estimate of percentage (%) HA retention by cartilage tissue can also be defined based upon the experimental results. The amount or level of HA present in a given tissue culture medium was detected using ELISA, in a manner that can be understood by one of ordinary skill in the art.
For orientation: In an ELISA, binding on a coated surface is turned into a signal by an enzyme label.

Molecules are shown by their SMILES.

`N[C@H]1C(O)O[C@H](CO)[C@@H](O)[C@@H]1O.O=S(=O)(O)O` (stereo partly drawn) [Glucosamine Sulfate, glucosamine sulfate, reference compound]: the “Percentage (%) HA Reduction” value is, setting by setting: (glucosamine sulfate 20 mM (9 mg/ml), listed as glucosamine sulfate) “approximately 3%”; (glucosamine sulfate 20 mM (9 mg/ml)) 3%; (glucosamine sulfate 40 mM (18 mg/ml), listed as glucosamine sulfate) “approximately 28%”; (glucosamine sulfate 40 mM (18 mg/ml)) 28%; (glucosamine sulfate 80 mM (36 mg/ml), listed as glucosamine sulfate) “approximately 43%”; (glucosamine sulfate 80 mM (36 mg/ml)) 43%.

The record behind these values is US20170333390A1, “PHYTOCHEMICAL COMPOSITIONS INCLUDING SESAMIN FOR ANTI-INFLAMMATORY, ANTI-CYTOKINE STORM, AND OTHER USES” (CHIANG MAI UNIVERSITY, priority 2009, published 2017).
